In one experiment the test system is Chlamydomonas HPPD1. In words: HPPD activity assay, Chlamydomonas HPPD1. Format: biochemical, Chlamydomonas reinhardtii. The following applies: normalized on Arabidopsis wild-type HPPD. The protocol: HPPD produces homogentisic acid and CO2 from 4-hydroxyphenylpyruvate (4-HPP) and O2. The activity assay for HPPD is based on the analysis of homogentisic acid by reversed phase HPLC.
The assay mixture can contain 150 mM potassium phosphate buffer pH 7.0, 50 mM L-ascorbic acid, 1 μM FeSO4 and 7 μg of purified enzyme in a total volume of 1 ml.
Inhibitors are dissolved in DMSO (dimethylsulfoxide) to a concentration of 20 mM or 0.5 mM, respectively. From this stock solution serial five-fold dilutions are prepared in DMSO, which are used in the assay. The respective inhibitor solution accounts for 1% of the assay volume. Thus, final inhibitor concentrations range from 200 μM to 2.5 nM or from 5 μM to 63 pM, respectively. After a preincubation of 30 min the reaction is started by adding 4-HPP to a final concentration of 0.1 mM. The reaction is allowed to proceed for 120 min at room temperature. The reaction is stopped by addition of 100 μl of 4.5 M phosphoric acid.
Activities are normalized by setting the uninhibited enzyme activity to 100%. IC50 values are calculated using non-linear regression.
The assay mixture can contain 150 mM potassium phosphate buffer pH 7.0, 50 mM L-ascorbic acid, 100 μM Catalase (Sigma-Aldrich), 1 μM FeSO4 and 0.2 units of purified HPPD enzyme in a total volume of 505 μl. […]
Inhibitors are dissolved in DMSO (dimethylsulfoxide) to a concentration of 0.5 mM. […] IC50 values are calculated using non-linear regression.
Using methods which are described in the above examples or well known in the art, purified, recombinant wildtype HPPD enzymes are characterized with respect to their kinetic properties and sensitivity towards HPPD inhibiting herbicides. Apparent michaelis constants (Km) and maximal reaction velocities (Vmax) are calculated by non-linear regression with the software GraphPad Prism 5 (GraphPad Software, La Jolla, USA) using a substrate inhibition model. […] Weighted means (by standard error) of Km and […] values are calculated from at least three independent experiments. […]

The test system of experiment [1] is transgenic soybean plants, Glycine Max HPPD, event SDS-10298. In words: Greenhouse testing of transgenic soybean plants, Glycine Max HPPD. The note with it: soybean SDS-10298, 5 days after herbicide treatment, average of 8 T1. The experiment is classed as in vivo. From the text:
Various methods for the production of stably transformed plants are well known in the art. Coumarone-derivative herbicide tolerant soybean (Glycine max) or corn (Zea mays) plants can be produced by a method described by Olhoft et al. (US patent 2009/0049567). Briefly, HPPD or HST encoding polynucleotides are cloned into a binary vector using standard cloning techniques as described by Sambrook et al. (Molecular cloning (2001) Cold Spring Harbor Laboratory Press). The final vector construct contains an HPPD or HST encoding sequence flanked by a promoter sequence (e.g. the ubiquitin promoter (PcUbi) sequence) and a terminator sequence (e.g. the nopaline synthase terminator (NOS) sequence) and a resistance marker gene cassette (e.g. AHAS) (FIG. 2). Optionally, the HPPD or HST gene can provide the means of selection. Agrobacterium-mediated transformation is used to introduce the DNA into soybean's axillary meristem cells at the primary node of seedling explants. After inoculation and co-cultivation with Agrobacteria, the explants are transferred to shoot induction medium without selection for one week. The explants are subsequently transferred to shoot induction medium with 1-3 μM imazapyr (Arsenal) for 3 weeks to select for transformed cells. Explants with healthy callus/shoot pads at the primary node are then transferred to shoot elongation medium containing 1-3 μM imazapyr until a shoot elongates or the explant dies. After regeneration, transformants are transplanted to soil in small pots, placed in growth chambers (16 hr day/8 hr night; 25° C. day/23° C. night; 65% relative humidity; 130-150 mE m−2 s−1) and subsequently tested for the presence of the T-DNA via Taqman analysis. After a few weeks, healthy, transgenic positive, single copy events are transplanted to larger pots and allowed to grow in the growth chamber. Transformation of corn plants is done by a method described by McElver and Singh (WO 2008/124495). Plant transformation vector constructs containing HPPD or HST sequences are introduced into maize immature embryos via Agrobacterium-mediated transformation. Transformed cells are selected in selection media supplemented with 0.5-1.5 μM imazethapyr for 3-4 weeks. Transgenic plantlets are regenerated on plant regeneration media and rooted afterwards. Transgenic plantlets are subjected to TaqMan analysis for the presence of the transgene before being transplanted to potting mixture and grown to maturity in greenhouse. Arabidopsis thaliana is transformed with HPPD or HST sequences by floral dip method as described by McElver and Singh (WO 2008/124495). Transgenic Arabidopsis plants are subjected to Tag Man analysis for analysis of the number of integration loci. Transformation of Oryza sativa (rice) are done by protoplast transformation as described by Peng et al. (U.S. Pat. No. 6,653,529)
Transgenic plants expressing heterologous HPPD or HST enzymes are tested for tolerance against coumarone-derivative herbicides in greenhouse experiments.
For post emergence treatment, the test plants are first grown to a height of 3 to 15 cm, depending on the plant habit, and only then treated with the herbicides. For this purpose, the test plants are either sown directly and grown in the same containers, or they are first grown separately and transplanted into the test containers a few days prior to treatment.
Depending on the species, the plants are kept at 10-25° C. or 20-35° C. The test period extends over 3 weeks. During this time, the plants are tended and their response to the individual treatments is evaluated. […] Tolerance to coumarone-derivative herbicides can also be assessed in Arabidopsis. In this case transgenic Arabidopsis thaliana plants are assayed for improved tolerance to coumarone-derivative herbicides in 48-well plates. Seeds are surface sterilized by stirring for 5 min in ethanol+water (70+30 by volume), rinsing one time with ethanol+water (70+30 by volume) and two times with a sterile, deionized water. […]

`CC1=NOC(c2c(Cl)ccc(C3=C(O)c4ncccc4C(C)(C)S3(=O)=O)c2Cl)C1` (centres unmarked) [Inhibitor 1, 7-[2,4-dichloro-3-(3-methyl-4,5-dihydroisoxazol-5-yl)phenyl]-5,5-dimethyl-6,6-dioxo-thiopyrano[4,3-b]pyridin-8-ol]: the “Normalized tolerance index TI” value with Chlamydomonas HPPD1 turned out to be 2.1.
Same read-out and setting: then `COCCOCc1c(Cl)ccc(C2=C(O)c3ncccc3C(C)(C)S2(=O)=O)c1Cl` [Inhibitor 3, 7-[2,4-dichloro-3-(2-methoxyethoxymethyl)phenyl]-5,5-dimethyl-6,6-dioxo-thiopyrano[4,3-b]pyridin-8-ol], with 0.1.
For `CC1(C)c2cccnc2C(O)=C(c2ccc(Cl)nc2Cl)S1(=O)=O` [Inhibitor 2, 7-(2,6-dichloro-3-pyridyl)-5,5-dimethyl-6,6-dioxo-thiopyrano[4,3-b]pyridin-8-ol], the “Injury evaluation, scale of 1-100, bleaching phenotype” value turned out to be 4 in experiment [1] (2.5 g/ha), 5 in experiment [1] (10 g/ha) and 17 in experiment [1] (40 g/ha).
Consider `Cc1c(C(=O)c2cnn(C)c2O)ccc(S(C)(=O)=O)c1C1=NOCC1` [Topramezone, reference compound], for which the figures for the “Injury evaluation, scale of 1-100, bleaching phenotype” value in experiment [1] (6.25 g/ha), in experiment [1] (25 g/ha) and in experiment [1] (100 g/ha) were 7, 18 and 28, respectively.
